Tests used:
Conditions in all cases: 72 h
U2OS [1] = assay: cell viability relative to DMSO; higher = less toxic
Caco-2 [2] = assay: as above
Calu-3 [3] = assay: as above
HepG2 [4] = assay: as above
Vero E6 [5] = assay: as above
U2OS [6] = assay: relative viability EC50 (midpoint between 100% and the lowest measured viability); higher = less toxic
Caco-2 [7] = assay: as above
Calu-3 [8] = assay: as above
HepG2 [9] = assay: as above
Vero E6 [10] = assay: as above
U2OS [11] = assay: drug sensitivity score (DSS) for viability; higher = more toxic; extreme values may be limits of the assay
Caco-2 [12] = assay: as above
Calu-3 [13] = assay: as above
HepG2 [14] = assay: as above
Vero E6 [15] = assay: as above

Compound | cell viability (U2OS [1]; 1 nM) | cell viability (U2OS [1]; 10 nM) | cell viability (U2OS [1]; 100 nM) | cell viability (U2OS [1]; 1000 nM) | cell viability (U2OS [1]; 10000 nM) | cell viability (Caco-2 [2]; 1 nM) | cell viability (Caco-2 [2]; 10 nM) | cell viability (Caco-2 [2]; 100 nM) | cell viability (Caco-2 [2]; 1000 nM) | cell viability (Caco-2 [2]; 10000 nM) | cell viability (Calu-3 [3]; 1 nM) | cell viability (Calu-3 [3]; 10 nM) | cell viability (Calu-3 [3]; 100 nM) | cell viability (Calu-3 [3]; 1000 nM) | cell viability (Calu-3 [3]; 10000 nM) | cell viability (HepG2 [4]; 1 nM) | cell viability (HepG2 [4]; 10 nM) | cell viability (HepG2 [4]; 100 nM) | cell viability (HepG2 [4]; 1000 nM) | cell viability (HepG2 [4]; 10000 nM) | cell viability (Vero E6 [5]; 1 nM) | cell viability (Vero E6 [5]; 10 nM) | cell viability (Vero E6 [5]; 100 nM) | cell viability (Vero E6 [5]; 1000 nM) | cell viability (Vero E6 [5]; 10000 nM) | relative viability EC50 (U2OS [6]) | relative viability EC50 (Caco-2 [7]) | relative viability EC50 (Calu-3 [8]) | relative viability EC50 (HepG2 [9]) | relative viability EC50 (Vero E6 [10]) | drug sensitivity score (U2OS [11]) | drug sensitivity score (Caco-2 [12]) | drug sensitivity score (Calu-3 [13]) | drug sensitivity score (HepG2 [14]) | drug sensitivity score (Vero E6 [15])
Oc1cc(O)cc(O)c1 [phloroglucin] | 101% | 98.3% | 98.7% | 98.2% | 98.7% | 113% | 91.5% | 104% | 91.6% | 104% | 104% | 105% | 113% | 90.1% | 98.8% | 103% | 104% | 91.8% | 99% | 104% | 101% | 102% | 98.6% | 103% | 101% | > 10 µM | > 10 µM | > 10 µM | > 10 µM | > 10 µM | 0 | 0 | 0 | 0 | 0
Cc1ccc2c(c1)c1c3n2CCNC3CCC1 (stereo not given) [pirlindole] | 100% | 102% | 96.9% | 103% | 102% | 90.9% | 101% | 97.9% | 101% | 104% | 98.1% | 100% | 98% | 102% | 99.1% | 100% | 98% | 99.9% | 102% | 82.4% | 97.7% | 100% | 97.6% | 101% | 101% | > 10 µM | > 10 µM | > 10 µM | > 10 µM | > 10 µM | 0 | 0 | 0 | 0.3 | 0
Nc1ccc(C(=O)O)cc1 [potassium-p-aminobenzoate] | 96.2% | 101% | 94.4% | 103% | 94.9% | 95.6% | 97.1% | 95.1% | 102% | 102% | 107% | 97.1% | 99% | 105% | 103% | 102% | 93.6% | 109% | 112% | 103% | 105% | 105% | 104% | 97.1% | 100% | > 10 µM | > 10 µM | > 10 µM | > 10 µM | > 10 µM | 0 | 0 | 0 | 0 | 0
OC(CCN1CCCCC1)(c1ccccc1)c1ccccc1 [pridinol] | 99.5% | 102% | 93.7% | 93.5% | 100% | 96.9% | 108% | 97.9% | 94.9% | 99% | 97.8% | 96.9% | 91.7% | 99.4% | 93.2% | 101% | 95.3% | 101% | 106% | 106% | 99.8% | 103% | 100% | 93.8% | 98.5% | > 10 µM | > 10 µM | > 10 µM | > 10 µM | > 10 µM | 0 | 0 | 0 | 0 | 0
CCCNC(C)C(=O)Nc1ccccc1C (stereo not given) [prilocaine] | 100% | 108% | 99.3% | 105% | 96.9% | 95.1% | 100% | 99.1% | 102% | 97.3% | 89% | 102% | 95.5% | 94% | 101% | 113% | 91.9% | 102% | 96.2% | 98.8% | 101% | 98.9% | 92.2% | 99.8% | 96.9% | > 10 µM | > 10 µM | > 10 µM | > 10 µM | > 10 µM | 0 | 0 | 0 | 0 | 0
C[C@H](N[C@@H](CCc1ccccc1)C(=O)O)C(=O)N1Cc2ccccc2C[C@H]1C(=O)O [quinaprilat] | 94.7% | 96.1% | 98.3% | 98.1% | 106% | 102% | 98.2% | 96.8% | 100% | 92.1% | 97.5% | 97.6% | 91.3% | 97% | 93.5% | 107% | 94.9% | 98.4% | 110% | 94.9% | 91.8% | 98.9% | 91.8% | 104% | 106% | > 10 µM | > 10 µM | > 10 µM | > 10 µM | > 10 µM | 0 | 0 | 0 | 0 | 0
c1cc2c(cc1[C@H]1OC[C@H]3[C@@H]1CO[C@@H]3c1ccc3c(c1)OCO3)OCO2 [sesamin] | 96.9% | 100% | 102% | 104% | 99.3% | 93.7% | 95% | 98.4% | 95.7% | 89.2% | 109% | 103% | 102% | 98.1% | 90.1% | 105% | 107% | 102% | 91.1% | 106% | 99.8% | 103% | 94.6% | 99.3% | 99.4% | > 10 µM | > 10 µM | > 10 µM | > 10 µM | > 10 µM | 0 | 0 | 0 | 0 | 0
